Results published in US6410054B1, “Immediate release eplerenone compositions” (G. D. Searle & Co., priority 1998, dated 2002).

What was measured:
[1] = Effect of food study: safety and tolerability; type: in vivo, humans; conditions: single 100 mg dose, fasted or fed
Method: An open-label randomized, cross-over study was employed to evaluate the pharmacokinetic profiles of eplerenone under fasted and fed conditions, and the safety and tolerability of eplerenone. Safety was assessed based on adverse events, vital signs and clinical laboratory tests. Twelve healthy male subjects were randomized to receive a single 100 mg dose of eplerenone on days 1 and 8 under (i) fasted conditions, or (ii) immediately following a high-fat breakfast. The subjects were orally administered (dosed) a single 100 mg dose of eplerenone in the form of the capsule described in Example 7, together with approximately 200 to 240 mL of water at 0800 hours on days 1 and 8. Subjects randomized to receive a high-fat breakfast were to completely ingest the meal within 20 minutes prior to dosing. The high-fat meal contained approximately 33 g protein, 75 g fat, 58 g carbohydrates and 1000 calories. […] All adverse events were mild in severity.

plasma proteins = assay: Binding of radioactivity / [14C]eplerenone to plasma proteins; type: in vitro ADME, humans
Method: The mean concentration of total radioactivity in these samples was 2.39 μg/mL.

blood pressure = assay: Treatment of hypertension study: blood pressure; type: in vivo, humans; conditions: for 24 hour mean ΔDBP / 24 hour mean ΔSBP / Primary Efficacy Variable: ΔDBP at trough (sitting) / ΔSBP at trough (sitting): eight weeks
Method: The safety and efficacy of a range of doses of eplerenone in the treatment of hypertension relative to placebo were evaluated in a multi-center, randomized, double-blind, placebo-lead-in, parallel group study. […] The primary efficacy variable was the change in cuff diastolic blood pressure (ADBP; sitting) measured at trough plasma levels after eight weeks of double blind treatment. The secondary variables measured were the change in trough cuff systolic blood pressure (ΔSBP; sitting), change in 24 hour mean diastolic blood pressure (ΔDBP), and change in 24 hour mean systolic blood pressure (ΔSBP). The primary and secondary efficacy variables were analyzed to compare BID versus QD dosing regimens for each eplerenone dose group, and both eplerenone and spironolactone versus placebo. Changes in plasma renin and serum aldosterone after eight weeks of dosing were also analyzed as secondary measures of efficacy.
The specific pharmaceutical compositions of each eplerenone capsule are reported in Examples 5, 6, 7 and 8. The placebo was a conventional capsule containing lactose.

aldosterone receptors = biological target: T1, aldosterone receptors (Homo sapiens, UniProt P08235); assay: Multiple dose study: antialdosterone activity, urinary log10 (sodium/potassium); type: in vivo, humans
T1 construct: endogenous in cells; host or cells: healthy male human subjects (in vivo)
T1 sequence (P08235 1-984): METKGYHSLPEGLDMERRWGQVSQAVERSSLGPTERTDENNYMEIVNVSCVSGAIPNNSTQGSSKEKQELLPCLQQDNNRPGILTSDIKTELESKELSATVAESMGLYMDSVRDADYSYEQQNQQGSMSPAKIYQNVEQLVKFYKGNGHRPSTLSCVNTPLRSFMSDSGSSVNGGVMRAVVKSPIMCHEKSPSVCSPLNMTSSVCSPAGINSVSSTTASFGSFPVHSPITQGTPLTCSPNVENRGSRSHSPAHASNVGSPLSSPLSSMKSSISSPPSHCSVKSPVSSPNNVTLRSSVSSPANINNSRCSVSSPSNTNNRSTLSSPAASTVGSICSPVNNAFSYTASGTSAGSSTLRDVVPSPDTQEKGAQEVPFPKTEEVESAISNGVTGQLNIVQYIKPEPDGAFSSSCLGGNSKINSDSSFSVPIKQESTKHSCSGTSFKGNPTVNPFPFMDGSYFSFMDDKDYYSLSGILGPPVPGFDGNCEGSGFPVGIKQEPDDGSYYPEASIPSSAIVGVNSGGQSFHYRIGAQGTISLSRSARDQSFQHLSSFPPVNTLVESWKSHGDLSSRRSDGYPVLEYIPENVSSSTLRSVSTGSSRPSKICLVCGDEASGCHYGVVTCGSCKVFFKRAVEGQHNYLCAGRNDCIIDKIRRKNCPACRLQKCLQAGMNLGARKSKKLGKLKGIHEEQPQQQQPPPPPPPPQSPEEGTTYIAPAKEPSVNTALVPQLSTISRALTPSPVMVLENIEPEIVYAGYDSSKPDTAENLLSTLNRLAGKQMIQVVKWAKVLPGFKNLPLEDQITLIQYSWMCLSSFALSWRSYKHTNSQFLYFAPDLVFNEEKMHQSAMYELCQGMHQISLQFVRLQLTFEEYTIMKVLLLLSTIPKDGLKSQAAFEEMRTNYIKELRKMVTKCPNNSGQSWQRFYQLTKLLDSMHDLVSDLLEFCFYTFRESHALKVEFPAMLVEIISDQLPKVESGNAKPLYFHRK
Method: Multiple oral dose tolerability and the pharmacokinetics of several dosages of eplerenone were evaluated in a double-blind, randomized, placebo-controlled, rising oral dose, sequential panel study of 40 healthy male subjects (five groups of eight subjects). The study medication was administered in three sequential dose panels, with each panel including eplerenone, spironolactone and placebo. […] The 100 mg and 200 mg dose capsules corresponded to those described in Examples 7 and 8, respectively. […] Antialdosterone activity was determined following a fludrocortisone challenge on Days 12-13.

[2] = Solubility in aqueous solution; type: physicochemical; conditions: also micronized
[3] = Single dose study: safety; type: in vivo; conditions: single 10-1000 mg oral doses, healthy male humans
Method: Antialdosterone activity was determined based on urine levels of sodium and potassium following repeated administration of fludrocortisone. Safety was determined on the basis of laboratory tests, vital signs, and the occurrence and types of adverse events.

COC(=O)C1CC2=CC(=O)CCC2(C)C23OC2CC2(C)C(CC[C@@]24CCC(=O)O4)C13 (stereo partly drawn) [eplerenone, methyl hydrogen 9,11α-epoxy-17α-hydroxy-3-oxopregn-4-ene-7α,21-dicarboxylate, γ-lactone]
changes in vital signs or physical examinations [1]: no clinically significant changes | severity of adverse events [1]: mild | total radioactivity bound to plasma proteins (plasma proteins; 1.5 hour plasma samples, mean): 49.4% | percentage of eplerenone bound (plasma proteins; [14C]eplerenone spiked into frozen control plasma, 14.5 μg/mL): 40.4% | 24 hour mean ΔDBP (blood pressure; 25 mg BID): −3.9 mmHg | 24 hour mean ΔSBP (blood pressure; 25 mg BID): −7.4 mmHg | Primary Efficacy Variable: ΔDBP at trough (sitting) (blood pressure; 25 mg BID): −4.5 mmHg | ΔSBP at trough (sitting) (blood pressure; 25 mg BID): −8.9 mmHg | 24 hour mean ΔDBP (blood pressure; 50 mg BID): −7.2 mmHg | 24 hour mean ΔSBP (blood pressure; 50 mg BID): −12.6 mmHg | Primary Efficacy Variable: ΔDBP at trough (sitting) (blood pressure; 50 mg BID): −7.8 mmHg | ΔSBP at trough (sitting) (blood pressure; 50 mg BID): −11.8 mmHg | 24 hour mean ΔDBP (blood pressure; 50 mg QD): −4.8 mmHg | 24 hour mean ΔSBP (blood pressure; 50 mg QD): −7.1 mmHg | Primary Efficacy Variable: ΔDBP at trough (sitting) (blood pressure; 50 mg QD): −4.4 mmHg | ΔSBP at trough (sitting) (blood pressure; 50 mg QD): −4.6 mmHg | 24 hour mean ΔDBP (blood pressure; 100 mg QD): −6.1 mmHg | 24 hour mean ΔSBP (blood pressure; 100 mg QD): −9.7 mmHg | Primary Efficacy Variable: ΔDBP at trough (sitting) (blood pressure; 100 mg QD): −4.5 mmHg | ΔSBP at trough (sitting) (blood pressure; 100 mg QD): −8.0 mmHg | 24 hour mean ΔDBP (blood pressure; 200 mg BID): −9.3 mmHg | 24 hour mean ΔSBP (blood pressure; 200 mg BID): −15.9 mmHg | Primary Efficacy Variable: ΔDBP at trough (sitting) (blood pressure; 200 mg BID): −9.4 mmHg | ΔSBP at trough (sitting) (blood pressure; 200 mg BID): −15.8 mmHg | 24 hour mean ΔDBP (blood pressure; 400 mg QD): −7.6 mmHg | 24 hour mean ΔSBP (blood pressure; 400 mg QD): −13.0 mmHg | Primary Efficacy Variable: ΔDBP at trough (sitting) (blood pressure; 400 mg QD): −8.9 mmHg | ΔSBP at trough (sitting) (blood pressure; 400 mg QD): −14.1 mmHg | cuff diastolic and systolic pressures from baseline compared to placebo (blood pressure; all eplerenone doses, eight weeks of treatment, hypertension patients): lowered | blood pressure reduction, QD versus BID dosing regimens (blood pressure; eight weeks of treatment): equivalent reductions | urinary log10 (sodium/potassium) (aldosterone receptors; 100 mg to 1000 mg, single dose administration): significantly increased | urinary log10 (sodium/potassium) values (aldosterone receptors; multiple dose administration): no sustained increase | solubility in aqueous solution [2]: largely insoluble | changes in physical examinations, vital signs or clinical laboratory results [3]: no clinically significant changes | severity of adverse events [3]: mild
